Laboratory results as given in US11485987B2, “Methods for inducing bioorthogonal reactivity” (University of Delaware, priority 2015, dated 2022).

Key:
[1] = Electrochemical oxidation / cyclic voltammetry; type: physicochemical; conditions: phosphate buffer pH 7.0, vs Ag/AgCl reference
Procedure: Compound 3a has a maximum in the UV-vis spectrum at 292 nm, and 4a has a maximum at 325 nm with a less intense peak at 525 nm (FIG. 2). […] This isosbestic point was also conserved in the photocatalytic and enzymatic (FIG. 2) oxidations of 3a described below, and the spectroscopic changes at 292 and 325 nm were routinely used for monitoring reaction progress.
All electrochemistry was performed using a CHI-620D potentiostat/galvanostat. Cyclic voltammetry was performed using a standard three-electrode configuration. CV scans were recorded for quiescent solutions using a platinum disk working electrode (2.0 mm diameter CH Instruments) and a platinum wire auxiliary electrode. All potentials were measured against a Ag/AgCl reference electrode (CH Instruments, 1 M KCl). CV and DPV experiments were performed in a nitrogen saturated 0.1 M potassium phosphate (KH2PO4) buffered solution at pH 7.0. The concentration of the analyte was 1.0 mM for all experiments.

[2] = molecular target: T1, horseradish peroxidase (HRP) (Armoracia rusticana, UniProt P00433); assay: Horseradish peroxidase (HRP) catalyzed oxidation of DHTz to tetrazine; type: biochemical; conditions: HRP 15 nM; for Rate of HRP Oxidation of 3a: first 10 seconds
T1 sequence (P00433 31-338): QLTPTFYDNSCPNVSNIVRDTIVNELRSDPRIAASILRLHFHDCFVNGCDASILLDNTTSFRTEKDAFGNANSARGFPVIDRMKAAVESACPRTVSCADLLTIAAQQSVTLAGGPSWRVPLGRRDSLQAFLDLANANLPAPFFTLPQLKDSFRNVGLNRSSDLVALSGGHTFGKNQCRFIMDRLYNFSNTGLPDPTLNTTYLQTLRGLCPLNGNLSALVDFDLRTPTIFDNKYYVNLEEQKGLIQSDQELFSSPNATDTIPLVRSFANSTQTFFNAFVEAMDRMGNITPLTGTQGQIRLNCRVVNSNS
Procedure: (§1) Upon addition of horseradish peroxidase (15 nM) the UV-vis spectrum was monitored every 10 seconds. With 50% conversion after 100 seconds, complete conversion of 3a to 4a is observed after 600 seconds, as evidenced by the decrease in the absorption at 292 nm and increase at 325 nm with an isosbestic point at 303 nm. Similar spectral changes are observed when 3a is electrochemically oxidized to 4a in aqueous solution, or when the oxidation of 3a to 4a is photocatalyzed by methylene blue. […] Methylene blue was considered a particularly attractive sensitizer due to its clinical relevance, low molecular weight, low toxicity, high solubility, and an absorption spectrum (λmax 665 nm) that extends to the near IR. Further, methylene blue has previously been explored for applications in photodynamic therapy based on oxidation of indole-3-acetic acid. Rose bengal (λmax 550 nm), used in a range of biomedical applications, was also identified as an excellent sensitizer. […] Methylene blue (4 μM) also catalyzed the conversion of 3a to 4a in the presence of ambient light, with 47% conversion noted after 2 h. […] The mechanism of photooxidation more likely involves electron transfer and is the subject of ongoing study.
As a complement to these photocatalyzed reactions, the inventors observed that HRP can efficiently catalyze the oxidation of 3a in the dark at low enzyme concentration (15 nM) (FIG. 4). While HRP typically requires H2O2 as the terminal oxidant, the addition of HRP to a peroxide-free solution of 3a (30 μM) in PBS led to the rapid formation of 4a (FIG. 4, panel B). […] Neither cytochrome c nor hemoglobin were effective catalysts of DHTz oxidation, with only slow conversion of 3a to 4a even with heme concentrations that were nearly 3 orders of magnitude higher than that used with HRP.
Solutions (1 mL) containing 3a (30 μm) in PBS buffer were prepared in a cuvette from stock solutions. Oxidation of 3a to 4a was monitored by recording absorbance at 325 nm every 10 seconds while either hydrogen peroxide (2 mM), HRP (15 nM) or both were added (FIG. 4, panel B). For the superoxide dismutase experiment, HRP (15 nM) was added followed by SOD (770 nM) 40 seconds later (FIG. 4, panel C). For the kinetics experiments, solutions (1 mL) containing 3a in PBS buffer with EDTA (2 mM) were prepared in the following concentrations of 3a: 9, 17, 34, 50, 83, 150 and 200 μM. The oxidation rate was determined by observing the conversion of 3a to 4a in the first 10 seconds after mixing in HRP (15 nM) and subtracting the background oxidation prior to the addition of HRP.

[3] = Methylene blue catalyzed photooxidation of DHTz to tetrazine
Procedure: as §1, with “Methylene blue (4 μM) also catalyzed the conversion of 3a to 4a in the presence of ambient light, with 47% conversion noted after 2 h.” left out
Thus, a PBS solution of 3a was sparged with 98% nitrogen and 2% air, such that the final O2 concentration was 5 μM.
Oxidation of 3a to 4a was monitored by recording absorbance at 325 nm every 30 seconds. Cuvettes for these experiments were washed with EDTA/PBS as described in the General Considerations (section 2.1). […]

voltammogram peak (electrochemical oxidation) [1]: 0.02 V
time to complete conversion of 3a to 4a [2]: 600 s
conversion of 3a to 4a ([2]; after 100 seconds): 50%
Rate of HRP Oxidation of 3a ([2]; [3a] 17 μM): 5.6e-08 M/s
Rate of HRP Oxidation of 3a ([2]; [3a] 34 μM): 8.9e-08 M/s
Rate of HRP Oxidation of 3a ([2]; [3a] 50 μM): 1.2e-07 M/s
Rate of HRP Oxidation of 3a ([2]; [3a] 83 μM): 2.1e-07 M/s
Rate of HRP Oxidation of 3a ([2]; [3a] 150 μM): 2.5e-07 M/s
Rate of HRP Oxidation of 3a ([2]; [3a] 200 μM): 2.6e-07 M/s
Structure (SMILES): O=C(O)CCC(=O)Nc1ccc(C2=NNC(c3ccccn3)=NN2)nc1 [3a, 4-oxo-4-((6-(6-(pyridin-2-yl)-1,4-dihydro-1,2,4,5-tetrazin-3-yl)pyridin-3-yl)amino)butanoic Acid]
time to quantitative conversion to tetrazine 4a ([3]; 3a 21 μM, methylene blue 4 μM, 660 nm LED 9.1 mW/cm^2, pH 7.4 PBS): ≤ 200 s
time to complete conversion of 3a to 4a ([3]; hypoxia model, O2 5 μM, methylene blue 7 μM, 660 nm): ≤ 30 min
conversion of 3a to 4a ([3]; methylene blue 4 μM, ambient light, 2 h): 47%
